From ChEMBL document CHEMBL1201862, “PubChem BioAssay data set” (2004)
Calls of active or inactive are those of the source.

How the values were obtained:
[1] = intracellular Trypanosoma cruzi inhibitors in host cells – cell-based, plate reader, cherry-pick samples, set 3, dose response (AID 651818); format: functional;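 further: compounds incubated with infected cells for about four days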
[2] = molecular target: T1, Short transient receptor potential channel 4 (Mus musculus, UniProt Q9QUQ5); assay: mouse TRPC4 channel inhibitors, dose response, cell-based, HEK293 TRPC4/mu-opioid, Fluo-4 calcium (AID 434942); format: functional;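 further: potency of inhibitors blocking the TRPC4 calcium response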
T1 sequence (Q9QUQ5 whole entry): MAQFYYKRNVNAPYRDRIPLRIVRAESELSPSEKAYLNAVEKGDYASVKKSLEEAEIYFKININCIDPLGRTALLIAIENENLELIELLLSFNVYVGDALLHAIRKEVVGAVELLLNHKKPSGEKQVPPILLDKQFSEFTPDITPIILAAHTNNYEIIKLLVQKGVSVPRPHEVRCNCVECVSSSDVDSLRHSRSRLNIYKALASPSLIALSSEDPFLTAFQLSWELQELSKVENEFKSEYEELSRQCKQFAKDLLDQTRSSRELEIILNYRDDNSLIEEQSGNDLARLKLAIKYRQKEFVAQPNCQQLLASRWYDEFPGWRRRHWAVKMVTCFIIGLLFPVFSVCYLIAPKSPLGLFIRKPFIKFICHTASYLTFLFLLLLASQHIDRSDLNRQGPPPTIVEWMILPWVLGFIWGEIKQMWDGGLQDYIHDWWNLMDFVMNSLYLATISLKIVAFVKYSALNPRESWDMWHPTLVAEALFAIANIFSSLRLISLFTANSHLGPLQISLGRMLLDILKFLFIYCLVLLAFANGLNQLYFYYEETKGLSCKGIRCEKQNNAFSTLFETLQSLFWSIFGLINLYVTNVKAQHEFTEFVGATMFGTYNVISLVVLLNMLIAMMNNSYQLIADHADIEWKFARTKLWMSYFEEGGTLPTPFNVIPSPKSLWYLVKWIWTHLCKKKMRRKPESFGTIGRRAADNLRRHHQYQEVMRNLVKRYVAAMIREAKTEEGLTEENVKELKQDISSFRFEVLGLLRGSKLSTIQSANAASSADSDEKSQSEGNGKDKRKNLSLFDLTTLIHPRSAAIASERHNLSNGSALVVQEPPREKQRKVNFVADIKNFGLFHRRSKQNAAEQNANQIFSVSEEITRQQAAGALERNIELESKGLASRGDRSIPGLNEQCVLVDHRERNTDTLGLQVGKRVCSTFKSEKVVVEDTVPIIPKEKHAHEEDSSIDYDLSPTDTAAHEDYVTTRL

[3] = molecular target: T2, DNA repair and recombination protein RAD54-like (Homo sapiens, UniProt Q92698); assay: inhibitors of human RAD54 branch migration, confirmation, biochemical, fluorescence, cherry-picked samples, dose series (AID 651657); format: functional
T2 sequence (Q92698 whole entry): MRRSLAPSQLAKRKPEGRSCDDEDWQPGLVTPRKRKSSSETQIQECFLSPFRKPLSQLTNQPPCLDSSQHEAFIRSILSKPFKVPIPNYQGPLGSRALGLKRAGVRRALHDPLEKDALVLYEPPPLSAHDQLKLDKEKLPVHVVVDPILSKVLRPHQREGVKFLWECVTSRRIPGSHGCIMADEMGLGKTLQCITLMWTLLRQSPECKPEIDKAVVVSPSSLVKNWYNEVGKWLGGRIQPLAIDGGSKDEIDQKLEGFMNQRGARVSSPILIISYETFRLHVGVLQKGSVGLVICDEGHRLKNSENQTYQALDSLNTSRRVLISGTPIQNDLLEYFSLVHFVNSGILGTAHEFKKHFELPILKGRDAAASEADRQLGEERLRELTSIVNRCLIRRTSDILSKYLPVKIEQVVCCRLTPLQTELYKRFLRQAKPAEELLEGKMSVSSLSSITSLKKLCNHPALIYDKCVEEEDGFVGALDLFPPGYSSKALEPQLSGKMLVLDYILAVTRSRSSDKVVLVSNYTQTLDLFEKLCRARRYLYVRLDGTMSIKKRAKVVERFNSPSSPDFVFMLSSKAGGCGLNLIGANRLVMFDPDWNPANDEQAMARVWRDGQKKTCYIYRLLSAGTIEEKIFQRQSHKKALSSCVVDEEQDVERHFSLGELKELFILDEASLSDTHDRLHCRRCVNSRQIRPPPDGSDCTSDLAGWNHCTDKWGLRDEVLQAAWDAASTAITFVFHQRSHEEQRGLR

[4] = cytotoxicity in HEK-293T cells, dose response, cytotoxicity control for TCR NF-kB inhibitor project, luminescence, T-cell screen hits (AID 489026); format: functional, cell-based;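 further: cells exposed to compound about 14 hours before the viability readout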
INS1 = assay: beta cell apoptosis inhibitors, cytokine rescue, dose response, luminescence, retest (AID 449756); format: functional, cell-based; settings: Rattus norvegicus, INS1;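 further: cell death triggered by IL-1 beta plus TNF-alpha plus IFN-gamma mixture; protective hits raise ATP signal compared with cytokine alone wells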
[5] = HEK293T cytotoxicity, dose response, cytotoxicity control for miR-122 modulator project, cell-based, inhibitor set, cherry-pick, set 2 (AID 720697); format: functional
[6] = inhibitors of firefly luciferase expression or activity, dose response, H4 neuroglioma cells, luminescence (AID 1990); format: functional, cell-based
Nonstructural protein 1 = Nonstructural protein 1 (Influenza A virus, UniProt Q194T2); format: functional, Influenza A virus (A/California/07/2009(H1N1))
Sequence of Nonstructural protein 1 (Q194T2 whole entry): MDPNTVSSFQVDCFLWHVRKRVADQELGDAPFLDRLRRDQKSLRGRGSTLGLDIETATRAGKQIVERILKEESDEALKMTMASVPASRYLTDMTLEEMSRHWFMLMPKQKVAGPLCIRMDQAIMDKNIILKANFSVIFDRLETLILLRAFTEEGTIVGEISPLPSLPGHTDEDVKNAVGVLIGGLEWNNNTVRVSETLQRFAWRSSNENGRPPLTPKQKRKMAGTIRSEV

BJ [7] = assay: cytotoxicity toward BJ-TERT fibroblasts, dose response, cell-based, RAS-independent, luminescence (AID 1933); format: functional; settings: Homo sapiens
[8] = inhibitors of intracellular T. cruzi replication, confirmation, NIH3T3 host cells, beta-gal luminescence (AID 2044); format: functional, cell-based;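 further: intracellular parasites grown in NIH/3T3 mouse fibroblasts as host cells; luminescent beta-galactosidase reporter signal from transgenic T. cruzi replicating inside host cells; inhibitors lower the luminescence signal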
BJ [9] = assay: cytotoxicity toward BJ-TERT-LT-ST fibroblasts, dose response, cell-based, RAS-independent, luminescence (AID 1935); format: functional; settings: Homo sapiens;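 further: BJ fibroblasts immortalized with TERT plus LT and ST oncogenes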
[10] = inhibitors of SNCA 5'UTR-driven reporter translation, confirmation, H4 neuroglioma cells, luminescence (AID 1988); format: functional, cell-based
[11] = cytotoxicity toward DRD oncogenic fibroblasts, dose response, cell-based, non-viral oncogenic, luminescence (AID 1934); format: functional; settings: Homo sapiens
BJ [12] = assay: cells; format: functional, cell-based; settings: Homo sapiens
[13] = Luminescence Cell-Based Dose Response HTS to Identify Inhibitors of 5'UTR Stem-Loop Driven Prion Protein mRNA Translation in H4 Neuroglioblastoma Cells. [Related pubchem assays: 1827 (Project Summary), 1813 (Primary HTS)]; format: functional
[14] = cytotoxicity toward NIH3T3 fibroblasts, dose response, counter-screen, cell-based, ATP luminescence, mouse fibroblasts (AID 2010); format: functional;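 further: cells exposed to compound for about 90 hours before reading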

With C[C@@H]1CCCCO[C@H](CN(C)Cc2ccc(Cl)c(Cl)c2)[C@@H](C)CN([C@H](C)CO)C(=O)c2cc(NC(=O)Nc3ccccc3)ccc2O1 the AC50 [1] was 3.65 µM (active).

For Cc1cc(C(=O)Nc2cccc3c2O[C@H](CN(C)Cc2ccc(C(=O)Nc4ccccc4N)cc2)[C@H](C)CN([C@H](C)CO)C3=O)n(C)n1, the AC50 [1] was 3.15 µM (active).

In the case of CCOC(=O)C1(Cc2ccccc2C)CCCN(Cc2ccc(NC(C)=O)cc2)C1 (stereo not drawn), the EC50 [2] is reported as 3.35 µM (active).

In the case of CCn1c(=N)c(C(=O)NC)cc2c(=O)n3cccc(C)c3nc21, the AC50 [3] is reported as 19.9 µM (active).

For COc1cc(C2=NOC(C(=O)NCc3ccc(F)cc3)C2)cc(OC)c1OC (stereo not drawn), the IC50 [4] was > 80 µM (inactive).

For COc1ccc(CC(=O)Nc2nc(-c3ccc(F)c(F)c3)cs2)cc1OC, the IC50 [4] was 51.3 µM (inactive) and the AC50 (INS1) was 6.65 µM (active).

With CCOC(=O)c1[nH]c(C)c(C(=O)OCC(=O)NC(C)c2ccc(F)cc2)c1C (stereo not drawn) the IC50 [4] was > 80 µM (inactive).

For COc1cc2nc(C3CCC3)n(NC(=O)C3CCCC(OC)C3)c(=O)c2cc1OC (stereo not drawn), the AC50 [5] was 6.2 µM (active).

In the case of C/C(=N\NC(=O)c1ccccc1Cl)c1ccccn1, the EC50 [6] is reported as 9.67 µM (active), the IC50 (Nonstructural protein 1) is reported as 11.1 µM (active) and the EC50 (BJ [7]) is reported as 14.8 µM (active). For the same molecule, the EC50 [8] was 1.5 µM (active), the EC50 (BJ [9]) was 12.2 µM (active) and the EC50 [10] was 5.67 µM (active). The EC50 [11] was 17.5 µM (active), the EC50 (BJ [12]) was 13.5 µM (active) and the EC50 [13] was 6.44 µM (active). The EC50 [14] was 5.56 µM (active) and the AC50 (INS1) was 1.4 µM (active).

With c1ccc(Cn2c(NCc3ccco3)nc3ccccc32)cc1 the EC50 [2] was 0.596 µM (active).

With O=C(CN1CCCCCC1)N1c2ccccc2Sc2ccccc21 the EC50 [2] was 1.68 µM (active).

With Cc1cccc(NS(=O)(=O)c2ccc(-c3cnc(C4CC4)o3)cc2)c1 the IC50 [4] was 67 µM (inactive).

For COc1cc(OC)c(/C=C2\C(=O)Nc3ccccc32)c(OC)c1, the IC50 [4] was 69.6 µM (inactive).

For CCOC(=O)c1[nH]c(C=O)c(C(=O)OCC)c1C, the IC50 [4] was > 80 µM (inactive).

With CN1C[C@H]2[C@@H](c3ccccc31)[C@@H](CO)N2C(=O)C1CCOCC1 the AC50 [5] was < 0.195 µM (active).

For C/C=C/c1ccc([C@H]2[C@@H](CO)N[C@@H]2CN(C(=O)c2ccccc2F)C(C)C)cc1, the AC50 [5] was 2.45 µM (active).

For C[C@@H]1CCCCO[C@H](CN(C)C(=O)Nc2ccc(C(F)(F)F)cc2)[C@@H](C)CN([C@H](C)CO)C(=O)c2cc(NC(=O)Nc3ccc(F)cc3)ccc2O1, the AC50 [1] was 1.35 µM (active).
